Experimental data published in the NIST ThermoML archive (doi:10.1016/j.jct.2010.08.021).
Numbers after ± are expanded uncertainties.

Assay: mn = molality of the nth substance listed, in mol/kg
Conditions: 283.15 K; 101 kPa; Liquid; Vibrating tube method; m2 = 0

## O [water] + N.N.O=C(O)CC(O)(CC(=O)O)C(=O)O
  mass density: 999.699 ± 0.15 kg/m3

## O [water] + NCC(=O)O
  mass density: 999.699 ± 0.11 kg/m3

## O [water] + N[C@@H](CO)C(=O)O
  mass density: 999.699 ± 0.12 kg/m3
